# Test results: patent US20250011288A1 (BRISTOL-MYERS SQUIBB COMPANY, priority 2021, published 2025)
# Target: T1, human RXFP1 (Homo sapiens, UniProt Q9HBX9)
# T1 construct: expressed in transfected cells
# T1 sequence (Q9HBX9 1-757): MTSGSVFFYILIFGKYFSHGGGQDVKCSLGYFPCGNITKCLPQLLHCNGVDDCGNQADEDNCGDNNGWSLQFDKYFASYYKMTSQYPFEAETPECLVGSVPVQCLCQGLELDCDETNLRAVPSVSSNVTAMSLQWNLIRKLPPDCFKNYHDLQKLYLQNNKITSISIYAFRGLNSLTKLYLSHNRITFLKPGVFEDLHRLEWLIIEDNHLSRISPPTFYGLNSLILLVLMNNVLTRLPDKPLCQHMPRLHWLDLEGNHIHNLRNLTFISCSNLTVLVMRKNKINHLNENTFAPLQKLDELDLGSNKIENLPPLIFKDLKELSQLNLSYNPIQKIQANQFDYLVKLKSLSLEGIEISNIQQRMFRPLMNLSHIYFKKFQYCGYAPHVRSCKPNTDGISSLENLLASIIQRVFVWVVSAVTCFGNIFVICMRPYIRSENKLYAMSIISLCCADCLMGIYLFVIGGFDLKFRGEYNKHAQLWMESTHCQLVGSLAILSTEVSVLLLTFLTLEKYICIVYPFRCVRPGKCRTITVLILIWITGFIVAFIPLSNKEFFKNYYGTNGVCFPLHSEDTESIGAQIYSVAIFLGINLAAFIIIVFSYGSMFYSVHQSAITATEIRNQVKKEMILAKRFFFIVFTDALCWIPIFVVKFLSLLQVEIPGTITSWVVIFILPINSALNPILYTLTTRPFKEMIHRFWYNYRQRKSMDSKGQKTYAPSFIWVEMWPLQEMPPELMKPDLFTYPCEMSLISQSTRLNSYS
# Experiment: human RXFP1 (hRXFP1) HEK293 cAMP assay (HTRF)
# Type: cell-based
# Settings: HEK293 cells stably expressing human RXFP1, 30 min at room temperature
# In short: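 Intracellular cAMP was quantified by HTRF after a 30 min room-temperature exposure of hRXFP1-HEK293 cells (1500/well) to compound at 0.010 nM–50 µM final, 2% DMSO. Buffer was HBSS with 20 mM HEPES, 0.05% BSA and 0.5 mM IBMX; values came from a 4-parameter logistic fit.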
row,SMILES,EC50 [nM]
1,"COc1ncc(C2=NO[C@H]3C[C@H](CO)CN23)cc1C(=O)N[C@@H]1C2CCC(/C2=C/C2CC2)[C@@H]1C(=O)N[C@H](C)C1(C)CC1 (stereo partly drawn) [Example 107, N-((1R,2R,3S, 4R,Z)-7-(cyclopropyl-methylene)-3-(((R)-1-(1-methylcyclopropyl)ethyl)carbamoyl)bicyclo[2.2.1]heptan-2-yl)-5-((6S,7aS)-6-(hydroxymethyl)-5,6,7,7a-tetrahydropyrrolo [1,2-d][1,2,4]oxadiazo 1-3-yl)-2-methoxynicotinamide]",2.6
2,"COc1ncc(C2=NOC3CC(C(O)C(F)(F)F)CC23)cc1C(=O)N[C@H]1[C@@H](C(=O)NC23CC(C#N)(C2)C3)[C@H]2CC[C@@H]1/C2=C\C1CC1 (stereo partly drawn) [Example 108, N-((1R,2R,3S,4R,Z)-3-((3-cyanobicyclo [1.1.1]pentan-1-yl)carbamoyl)-7-(cyclopropyl-methylene)bicyclo[2.2.1]heptan-2-yl)-2-methoxy-5-(5-(2,2,2-trifluoro-1-hydroxyethyl)-3a,5,6,6a-tetrahydro-4H-cyclopenta[d]isoxazol-3-yl)nicotinamide]",3.5
3,"COc1ncc(C2=NOC3CC(C(C)(C)O)CC23)cc1C(=O)N[C@H]1[C@@H](C(=O)Nc2ccc(F)c(C(F)(F)F)c2)[C@H]2CC[C@@H]1/C2=C\C1CC1 (stereo partly drawn) [Example 109, N-((1R,2R,3S,4R,Z)-7-(cyclopropylmethylene)-3-((4-fluoro-3-(trifluoromethyl)phenyl)carbamoyl)bicyclo[2.2.1]heptan-2-yl)-5-(5-(2-hydroxypropan-2-yl)-3a,5,6,6a-tetrahydro-4H-cyclopenta[d]isoxazol-3-yl)-2-methoxynicotinamide]",2.7
4,"COc1ncc(C2=NOC3CC(C(C)O)CC23)cc1C(=O)N[C@H]1[C@@H](C(=O)Nc2ccc(F)c(C(F)(F)F)c2)[C@H]2CC[C@@H]1/C2=C\C1CC1 (stereo partly drawn) [Example 110, N-((1R,2R,3S, 4R,Z)-7-(cyclopropyl-methylene)-3-((4-fluoro-3-(trifluoromethyl)phenyl)carbamoyl)bicyclo[2.2.1]heptan-2-yl)-5-(5-(1-hydroxyethyl)-3a,5,6,6a-tetrahydro-4H-cyclopenta[d]isoxazol-3-yl)-2-methoxy-nicotinamide]",3.5
5,"COc1ncc(C2=NOC3CC(C(O)C4CC4)CC23)cc1C(=O)N[C@H]1[C@@H](C(=O)Nc2ccc(F)c(C(F)(F)F)c2)[C@H]2CC[C@@H]1/C2=C\C1CC1 (stereo partly drawn) [Example 111, 5-(5-(cyclopropyl (hydroxy)methyl)-3a,5,6,6a-tetrahydro-4H-cyclopenta[d]isoxazol-3-yl)-N-((1R,2R,3S,4R,Z)-7-(cyclopropyl-methylene)-3-((4-fluoro-3-(trifluoromethyl)phenyl)carbamoyl)bicyclo[2.2.1]heptan-2-yl)-2-methoxynicotinamide]",3.6
6,"COc1ncc(C2=NOC3CC(C(C)O)CC23)cc1C(=O)N[C@H]1[C@@H](C(=O)Nc2ccc(F)c(C(F)(F)F)c2)[C@H]2CC[C@@H]1/C2=C\C1CC1 (stereo partly drawn) [Example 112, N-((1R,2R,3S,4R,Z)-7-(cyclopropyl-methylene)-3-((4-fluoro-3-(trifluoromethyl)phenyl)carbamoyl)bicyclo[2.2.1]heptan-2-yl)-5-(5-(1-hydroxyethyl)-3a,5,6,6a-tetrahydro-4H-cyclopenta[d]isoxazol-3-yl)-2-methoxynicotinamide]",3.9
7,"CCC(O)C1CC2ON=C(c3cnc(OC)c(C(=O)N[C@H]4[C@@H](C(=O)Nc5ccc(F)c(C(F)(F)F)c5)[C@H]5CC[C@@H]4/C5=C\C4CC4)c3)C2C1 (stereo partly drawn) [Example 113, N-((1R,2R,3S,4R,Z)-7-(cyclopropyl-methylene)-3-((4-fluoro-3-(trifluoromethyl)phenyl)carbamoyl)bicyclo[2.2.1]heptan-2-yl)-5-(5-(1-hydroxypropyl)-3a,5,6,6a-tetrahydro-4H-cyclopenta[d]isoxazol-3-yl)-2-methoxynicotinamide]",4.3
8,"COc1ncc(C2=NOC3CC(CO)CC23)cc1C(=O)N[C@H]1[C@@H](C(=O)N[C@H](C)C2(C)CC2)[C@H]2CC[C@@H]1/C2=C\C(F)(F)F (stereo partly drawn) [Example 115, 5-(5-(hydroxymethyl)-3a,5,6,6a-tetrahydro-4H-cyclopenta[d]isoxazol-3-yl)-2-methoxy-N-((1R,2R,3S,4R,Z)-3-(((R)-1-(1-methylcyclopropyl)ethyl)carbamoyl)-7-(2,2,2-trifluoroethylidene)bicyclo[2.2.1]heptan-2-yl)nicotinamide]",2.1

# Results, then the molecule that gave them:
row,EC50 [nM],SMILES
1,2.7,"COc1ncc(C2=NOC3CC(CO)CC23)cc1C(=O)N[C@H]1[C@@H](C(=O)N[C@H](C)C2(C)CC2(F)F)[C@H]2CC[C@@H]1/C2=C\C(F)(F)F (stereo partly drawn) [Example 116, N-((1R,2R,3S,4R,Z)-3-(((1R)-1-(2,2-difluoro-1-methylcyclopropyl)ethyl)carbamoyl)-7-(2,2,2-trifluoroethylidene)bicyclo[2.2.1]heptan-2-yl)-5-(5-(hydroxymethyl)-3a,5,6,6a-tetrahydro-4H-cyclopenta[d]isoxazol-3-yl)-2-methoxynicotinamide]"
2,3.5,"COc1ncc(C2=NOC3CC(O)CC23)cc1C(=O)N[C@H]1[C@@H](C(=O)Nc2ccc(F)c(C(F)(F)F)c2)[C@H]2CC[C@@H]1/C2=C\C1CCC1 (stereo partly drawn) [Example 117, N-((1R,2R,3S,4R,Z)-7-(cyclobutyl-methylene)-3-((4-fluoro-3-(trifluoromethyl)phenyl)carbamoyl)bicyclo[2.2.1]heptan-2-yl)-5-(5-hydroxy-3a,5,6,6a-tetrahydro-4H-cyclopenta[d]isoxazol-3-yl)-2-methoxynicotinamide]"
3,4,"COc1ncc(C2=NOC3CC(CO)CC23)cc1C(=O)N[C@H]1[C@@H](C(=O)N[C@H](C)C2(C)CC2(F)F)[C@H]2CC[C@@H]1/C2=C\C(F)(F)F (stereo partly drawn) [Example 118, N-((1R,2R,3S,4R,Z)-3-(((1R)-1-(2,2-difluoro-1-methylcyclopropyl)ethyl)carbamoyl)-7-(2,2,2-trifluoroethylidene)bicyclo[2.2.1]heptan-2-yl)-5-(5-(hydroxymethyl)-3a,5,6,6a-tetrahydro-4H-cyclopenta[d]isoxazol-3-yl)-2-methoxynicotinamide]"
4,3.9,"COc1ncc(C2=NOC3COCC23)cc1C(=O)N[C@H]1[C@@H](C(=O)N[C@H](C)C2(C)CC2)[C@H]2CC[C@@H]1/C2=C\c1csc(C(F)(F)F)n1 (stereo partly drawn) [Example 119, 2-methoxy-N-((1R,2R,3S,4R,Z)-3-(((R)-1-(1-methylcyclopropyl)ethyl)carbamoyl)-7-((2-(trifluoromethyl)thiazol-4-yl)methylene)bicyclo[2.2.1]heptan-2-yl)-5-(3a,4,6,6a-tetrahydrofuro[3,4-d]isoxazol-3-yl)nicotinamide]"
5,4.8,"COc1ncc(C2=NOC3CC(CO)CC23)cc1C(=O)N[C@H]1[C@@H](C(=O)Nc2ccc(F)c(C(F)(F)F)c2)[C@H]2CC[C@@H]1/C2=C\c1csc(C)n1 (stereo partly drawn) [Example 120, N-((1R,2R,3S,4R,Z)-3-((4-fluoro-3-(trifluoromethyl)phenyl)carbamoyl)-7-((2-methylthiazol-4-yl)methylene)bicyclo [2.2.1]heptan-2-yl)-5-(5-(hydroxymethyl)-3a,5,6,6a-tetrahydro-4H-cyclopenta[d]isoxazol-3-yl)-2-methoxynicotinamide]"
6,1.3,"COc1ncc(C2=NOC3CC(O)CC23)cc1C(=O)N[C@H]1[C@@H](C(=O)Nc2ccc(F)c(C(F)(F)F)c2)[C@H]2CC[C@@H]1/C2=C\CCC(F)(F)F (stereo partly drawn) [Example 121, N-((1R,2R,3S,4R,Z)-3-((4-fluoro-3-(trifluoromethyl)phenyl)carbamoyl)-7-(4,4,4-trifluorobutylidene)bicyclo[2.2.1]heptan-2-yl)-5-(5-hydroxy-3a,5,6,6a-tetrahydro-4H-cyclopenta[d]isoxazol-3-yl)-2-methoxynicotinamide]"
7,2.6,"COc1ncc(C2=NOC3CC(C(O)C(F)(F)F)CC23)cc1C(=O)N[C@H]1[C@@H](C(=O)Nc2ccc(F)c(C(F)(F)F)c2)[C@H]2CC[C@@H]1/C2=C\C1CCC1 (stereo partly drawn) [Example 122, N-((1R,2R,3S,4R,Z)-7-(cyclobutyl-methylene)-3-((4-fluoro-3-(trifluoromethyl)phenyl)carbamoyl)bicyclo[2.2.1]heptan-2-yl)-2-methoxy-5-(5-(2,2,2-trifluoro-1-hydroxyethyl)-3a,5,6,6a-tetrahydro-4H-cyclopenta[d]isoxazol-3-yl)nicotinamide]"
8,3.1,"COc1ncc(C2=NOC3CC(CO)CC23)cc1C(=O)N[C@H]1[C@@H](C(=O)Nc2ccc(F)c(C(F)(F)F)c2)[C@H]2CC[C@@H]1/C2=C\C1CCCC1 (stereo partly drawn) [Example 123, N-((1R,2R,3S,4R,Z)-7-(cyclopentyl-methylene)-3-((4-fluoro-3-(trifluoromethyl)phenyl)carbamoyl)bicyclo[2.2.1]heptan-2-yl)-5-(5-(hydroxymethyl)-3a,5,6,6a-tetrahydro-4H-cyclopenta[d]isoxazol-3-yl)-2-methoxynicotinamide]"
